Measured values taken from patent US20250073358A1, “AROMATIC VINYL COMPOUND, METAL COMPLEX THEREOF, AND PREPARATION METHOD THEREFOR AND USE THEREOF” (SHANGHAI MAXINOVEL PHARMACEUTICALS CO., LTD., priority 2021, published 2025).

How the values were obtained:
PD-1/PD-L1 = PD-1/PD-L1 (Homo sapiens (Human), UniProt Q9NZQ7); assay: Homogenouse Time-Resolved Fluorescence (HTRF) binding assay, PD-1/PD-L1
Description: Homogenouse Time-Resolved Fluorescence (HTRF) binding assay was used to detect the binding ability of the compound of the present disclosure to PD-1/PD-L1.
The purchased kit (CisBio, #64CUS000C-1) contains reagents required for experiments such as PD-1, PD-L1, anti-tag1-Eu, Anti-tag2-XL665, Dilute Buffer, and Detection Buffer.
• 1. The compound was configured with 100% DMSO into 10 concentrations with a concentration gradient of 3 times. • 2. The DMSO solution of the compound was added to Dilute Buffer solution, and the mixture was mixed well and transferred to a 96-well plate. • 3. PD-L1 was diluted with Dilute Buffer solution and then added to the above 96-well plate. • 4. PD-1 was diluted with Dilute Buffer solution and then added to the above 96-well plate, and incubated at room temperature for 30 minutes. • 5. One part of anti-tag1-Eu and one part of Anti-tag2-XL665 were added to Detection Buffer solution, and the mixture was mixed well and transferred to the above 96-well plate. • 6. The mixture in the 96-well plate was incubated at room temperature for 1 to 24 hours. • 7. The HTRF values were read with Envision.

tumor = assay: Inhibitory effect on tumor in tumor-bearing mice; format: in vivo, C57/BL6 mice; conditions: tail vein injection, 45 MBq per mouse, compared with the control group (PBS)
From the text: • 1. Inhibitory effect of compound 78 on tumor • 1.1 Experimental animal information: tumor-bearing C57/BL6 mice; SPF grade; weight range: 17-20 g; Shanghai Qi'up Biomedical Technology Co., Ltd. • 1.2 Experimental process
Ten tumor-bearing mice with tumor volumes of 10-100 mm^3 were systematically and randomly divided into 2 groups according to tumor size, with 5 mice in each group, corresponding to PBS and compound 78 respectively. After anesthesia with isoflurane, tumor-bearing mice were injected into the tail vein with compound 78 with 45 MBq (approximately 1.2 mCi) per mouse and a volume of 0.2 mL. After administration, the tumor size and weight of the animals were measured periodically, and the tumor growth curve was drawn to understand the inhibitory effect of the drug on tumor.

PD-1/PD-L1, sequence (Q9NZQ7 19-238): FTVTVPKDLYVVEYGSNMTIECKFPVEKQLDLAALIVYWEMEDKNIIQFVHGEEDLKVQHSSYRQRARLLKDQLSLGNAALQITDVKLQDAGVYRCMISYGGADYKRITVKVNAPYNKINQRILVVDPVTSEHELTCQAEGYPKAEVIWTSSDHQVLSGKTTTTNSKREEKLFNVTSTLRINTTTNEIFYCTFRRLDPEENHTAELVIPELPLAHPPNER

| Structure (SMILES) | IC50 (PD-1/PD-L1) | inhibition of tumor growth (tumor) |
| --- | --- | --- |
| Cc1c(/C=C/c2cc(OCCNC(=O)C3CCC(CNC(=O)CN4CCN(CC(=O)O)CCN(CC(=O)O)CCN(CC(=O)O)CC4)CC3)c(CN3CCCC[C@H]3C(=O)O)cc2C(F)(F)F)cccc1-c1ccccc1 (stereo partly shown) [Compound 9] | 1.07 nM |  |
| Cc1c(/C=C/c2cc(OCCNC(=O)C3CCC(CNC(=O)CN4CCN(CC(=O)O)CCN(CC(=O)O)CCN(CC(=O)O)CC4)CC3)c(CN3CCCC[C@H]3C(=O)O)cc2C(F)(F)F)cccc1-c1ccccc1 (stereo partly shown) [Compound 14] | 0.95 nM | very good therapeutic effects on inhibiting tumor growth |
| Cc1cc(CN2CCCC[C@H]2C(=O)O)c(OCCOC(=O)CN2CCN(CC(=O)[O-])CCN(CC(=O)[O-])CCN(CC(=O)[O-])CC2)cc1/C=C/c1cccc(-c2ccccc2)c1C#N.[Lu+3] [Compound 15] | 5.33 nM | very good therapeutic effects on inhibiting tumor growth |
| Cc1c(/C=C/c2cc(OCCNC(=O)C3CCN(C(=O)CN4CCN(CC(=O)O)CCN(CC(=O)O)CCN(CC(=O)O)CC4)CC3)c(CN3CCCC[C@H]3C(=O)O)cc2C(F)(F)F)cccc1-c1ccccc1 [Compound 18] | 0.901 nM |  |
| Cc1c(/C=C/c2cc(OCC3CCN(C(=O)CN4CCN(CC(=O)O)CCN(CC(=O)O)CCN(CC(=O)O)CC4)CC3)c(CN3CCCC[C@H]3C(=O)O)cc2C(F)(F)F)cccc1-c1ccccc1 [Compound 19] | 0.869 nM |  |
| Cc1c(/C=C/c2cc(OCC3CCN(C(=O)CN4CCN(CC(=O)O)CCN(CC(=O)O)CCN(CC(=O)O)CC4)CC3)c(CN3CCCC[C@H]3C(=O)O)cc2C(F)(F)F)cccc1-c1ccccc1 [Compound 20] | 1.01 nM | very good therapeutic effects on inhibiting tumor growth |
| Cc1ccc(CCCC(=O)NCCCC[C@H](NC(=O)CN2CCN(CC(=O)O)CCN(CC(=O)O)CCN(CC(=O)O)CC2)C(=O)NCC2CCC(C(=O)NCCOc3cc(/C=C/c4cccc(-c5ccccc5)c4C)c(C(F)(F)F)cc3CN3CCCC[C@H]3C(=O)O)CC2)cc1 (stereo partly shown) [Compound 21] | 3.74 nM |  |
| Cc1ccc(CCCC(=O)NCCCC[C@H](NC(=O)CN2CCN(CC(=O)O)CCN(CC(=O)O)CCN(CC(=O)O)CC2)C(=O)NCC2CCC(C(=O)NCCOc3cc(/C=C/c4cccc(-c5ccccc5)c4C)c(C(F)(F)F)cc3CN3CCCC[C@H]3C(=O)O)CC2)cc1 (stereo partly shown) [Compound 22] | 5.03 nM | very good therapeutic effects on inhibiting tumor growth |
| Cc1c(/C=C/c2cc(OCCCCCCNC(=O)CN3CCN(CC(=O)O)CCN(CC(=O)O)CCN(CC(=O)O)CC3)c(CN3CCCC[C@H]3C(=O)O)cc2C(F)(F)F)cccc1-c1ccccc1 [Compound 23] | 0.833 nM |  |
| Cc1c(/C=C/c2cc(OCCCCCCNC(=O)CN3CCN(CC(=O)[O-])CCN(CC(=O)[O-])CCN(CC(=O)[O-])CC3)c(CN3CCCC[C@H]3C(=O)O)cc2C(F)(F)F)cccc1-c1ccccc1.[Lu+3] [Compound 24] | 0.785 nM | very good therapeutic effects on inhibiting tumor growth |
| Cc1ccc(CCCC(=O)NCCCC[C@H](NC(=O)CN2CCN(CC(=O)O)CCN(CC(=O)O)CCN(CC(=O)O)CC2)C(=O)NCCCCCCOc2cc(/C=C/c3cccc(-c4ccccc4)c3C)c(C(F)(F)F)cc2CN2CCCC[C@H]2C(=O)O)cc1 [Compound 25] | 16.2 nM |  |
| Cc1ccc(CCCC(=O)NCCCC[C@H](NC(=O)CN2CCN(CC(=O)O)CCN(CC(=O)O)CCN(CC(=O)O)CC2)C(=O)NCCCCCCOc2cc(/C=C/c3cccc(-c4ccccc4)c3C)c(C(F)(F)F)cc2CN2CCCC[C@H]2C(=O)O)cc1 [Compound 26] | 33.2 nM | very good therapeutic effects on inhibiting tumor growth |
| N#Cc1c(-c2ccccc2)ccnc1/C=C/c1cc(OCC2CCN(C(=O)CN3CCN(CC(=O)[O-])CCN(CC(=O)[O-])CCN(CC(=O)[O-])CC3)CC2)c(CN2CCCC[C@H]2C(=O)O)cc1C(F)(F)F.[Lu+3] [Compound 44] |  | very good therapeutic effects on inhibiting tumor growth |
| N#Cc1c(-c2ccccc2)ccnc1/C=C/c1cc(OCCCCCN2CCN(CC(=O)O)CCN(CC(=O)O)CC2)c(CN2CCCC[C@H]2C(=O)O)cc1C(F)(F)F [Compound 57] | 4.83 nM |  |
| N#Cc1c(-c2ccccc2)ccnc1/C=C/c1cc(OCC2CCN(C(=O)CN3CCN(CC(=O)O)CCN(CC(=O)O)CC3)CC2)c(CN2CCCC[C@H]2C(=O)O)cc1C(F)(F)F [Compound 59] | 5.47 nM |  |
| Cc1cc(CN2CCCC[C@H]2C(=O)O)c(OCCCCCN2CCN(CC(=O)O)CCN(CC(=O)O)CCN(CC(=O)O)CC2)cc1/C=C/c1cccc(-c2ccccc2)c1C [Compound 71] | 13.2 nM |  |
| Cc1cc(CN2CCCC[C@H]2C(=O)O)c(OCCOC(=O)CN2CCN(CC(=O)[O-])CCN(CC(=O)[O-])CCN(CC(=O)[O-])CC2)cc1/C=C/c1cccc(-c2ccccc2)c1C#N.[177Lu+3] [Compound 76] |  | very good therapeutic effects on inhibiting tumor growth |
| Cc1c(/C=C/c2cc(OCCOCCN3CCN(CC(=O)[O-])CCN(CC(=O)[O-])CCN(CC(=O)[O-])CC3)c(CN3CCCC[C@H]3C(=O)O)cc2C(F)(F)F)cccc1-c1ccccc1.[177Lu+3] [Compound 77] |  | very good therapeutic effects on inhibiting tumor growth |

More lines, main results first:

| IC50 (PD-1/PD-L1) | Structure (SMILES) | inhibition of tumor growth (tumor) |
| --- | --- | --- |
| 1.29 nM | Cc1c(/C=C/c2cc(OCCOCCN3CCN(CC(=O)O)CCN(CC(=O)O)CCN(CC(=O)O)CC3)c(CN3CCCC[C@H]3C(=O)O)cc2C(F)(F)F)cccc1-c1ccccc1 [Compound 2] |  |
| 3.16 nM | Cc1c(/C=C/c2cc(OCCNC(=O)CN3CCN(CC(=O)O)CCN(CC(=O)O)CCN(CC(=O)O)CC3)c(CN3CCCC[C@H]3C(=O)O)cc2C(F)(F)F)cccc1-c1ccccc1 [Compound 3, (2S)-1-({4-[(1E)-2-(2-Methyl-3-phenylphenyl)vinyl]-5-(trifluoromethyl)-2-{[2-({2-[4,7,10-tris(carboxymethyl)-1,4,7,10-tetraazacyclododecan-1-yl]acetyl}amino)ethyl]oxy}phenyl}methyl)hexahydropyridine-2-carboxylic acid] |  |
| 0.888 nM | Cc1c(/C=C/c2cc(OCCCCNC(=O)CN3CCN(CC(=O)O)CCN(CC(=O)O)CCN(CC(=O)O)CC3)c(CN3CCCC[C@H]3C(=O)O)cc2C(F)(F)F)cccc1-c1ccccc1 [Compound 4, (2S)-1-({4-[(1E)-2-(2-Methyl-3-phenylphenyl)vinyl]-5-(trifluoromethyl)-2-{[4-({2-[4,7,10-tris(carboxymethyl)-1,4,7,10-tetraazacyclododecan-1-yl]acetyl}amino)butyl]oxy}phenyl}methyl)hexahydropyridine-2-carboxylic acid] |  |
| 2.66 nM | Cc1c(/C=C/c2cc(OCCOCCN3CCN(CC(=O)O)CCN(CC(=O)O)CCN(CC(=O)O)CC3)c(CN3CCCC[C@H]3C(=O)O)cc2C(F)(F)F)cccc1-c1ccccc1 [Compound 6] | very good therapeutic effects on inhibiting tumor growth |
| 169 nM | Cc1ccc(CCCC(=O)NCCCC[C@H](NC(=O)CN2CCN(CC(=O)O)CCN(CC(=O)O)CCN(CC(=O)O)CC2)C(=O)NCCOc2cc(/C=C/c3cccc(-c4ccccc4)c3C)c(C(F)(F)F)cc2CN2CCCC[C@H]2C(=O)O)cc1 [Compound 10] |  |
| 32.5 nM | Cc1ccc(CCCC(=O)NCCCC[C@H](NC(=O)CN2CCN(CC(=O)O)CCN(CC(=O)O)CCN(CC(=O)O)CC2)C(=O)NCCCCOc2cc(/C=C/c3cccc(-c4ccccc4)c3C)c(C(F)(F)F)cc2CN2CCCC[C@H]2C(=O)O)cc1 [Compound 12] | very good therapeutic effects on inhibiting tumor growth |
| 300 nM | Cc1ccc(CCCC(=O)NCCCC[C@H](NC(=O)CN2CCN(CC(=O)O)CCN(CC(=O)O)CCN(CC(=O)O)CC2)C(=O)NCCOc2cc(/C=C/c3cccc(-c4ccccc4)c3C)c(C(F)(F)F)cc2CN2CCCC[C@H]2C(=O)O)cc1 [Compound 13] | very good therapeutic effects on inhibiting tumor growth |
| 1.42 nM | Cc1c(/C=C/c2cc(OCCCCCNC(=O)CN3CCN(CC(=O)O)CCN(CC(=O)O)CCN(CC(=O)O)CC3)c(CN3CCCC[C@H]3C(=O)O)cc2C(F)(F)F)cccc1-c1ccccc1 [Compound 16] |  |
| 9.22 nM | Cc1ccc(CCCC(=O)NCCCC[C@H](NC(=O)CN2CCN(CC(=O)O)CCN(CC(=O)O)CCN(CC(=O)O)CC2)C(=O)NCCOCCOc2cc(/C=C/c3cccc(-c4ccccc4)c3C)c(C(F)(F)F)cc2CN2CCCC[C@H]2C(=O)O)cc1 [Compound 30] |  |
| 0.603 nM | Cc1c(/C=C/c2cc(OCCOCCNC(=O)CN3CCN(CC(=O)O)CCN(CC(=O)O)CCN(CC(=O)O)CC3)c(CN3CCCC[C@H]3C(=O)O)cc2C(F)(F)F)cccc1-c1ccccc1 [Compound 31] |  |
| 12.4 nM | Cc1ccc(CCCC(=O)NCCCC[C@H](NC(=O)CN2CCN(CC(=O)O)CCN(CC(=O)O)CCN(CC(=O)O)CC2)C(=O)NCCOCCOc2cc(/C=C/c3cccc(-c4ccccc4)c3C)c(C(F)(F)F)cc2CN2CCCC[C@H]2C(=O)O)cc1 [Compound 32] | very good therapeutic effects on inhibiting tumor growth |
| 24.8 nM | Cc1c(/C=C/c2cc(OCCOCCN3CCN(CC(=O)O)CCN(CC(=O)O)CCN(CC(=O)O)CC3)c(CN3CCCC[C@@H]3C(=O)O)cc2C(F)(F)F)cccc1-c1ccccc1 [Compound 69] |  |
